Measured values as given in patent publication US20240376073A1 (Hoffmann-La Roche Inc., priority 2021, published 2024).
Counter-ions that a name gives are not always drawn.

These molecules were tested on Acinetobacter baumannii ATCC17961 (assay: Antimicrobial susceptibility testing: 90% growth inhibitory concentration (IC90) determination). Details: Acinetobacter baumannii ATCC17961; Iso-Sensitest broth; growth by OD 600 nm over 16 h; 35±2° C.; read-out: ATCC 17961 IC90.
Format: cell-based
How it was run: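 Twofold serial dilutions (e.g. 50 to 0.097 μM final) in Iso-Sensitest broth, inoculated at ~5×10^(5) CFU/ml, incubated at 35±2° C. OD600 read every 20 min over 16 h; IC90 derived from growth inhibition during logarithmic growth.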
`Cn1c(-c2ccc(OC(F)F)c(Cl)c2F)cnc1C(=O)Nc1ccc(C(=O)N2CCN(C(=O)[C@@H]3C[C@@H](O)C[N+]3(C)C)CC2)c(Cl)c1` [Example B47, 5-[3-chloro-4-(difluoromethoxy)-2-fluoro-phenyl]-N-[3-chloro-4-[4-[(2S,4R)-4-hydroxy-1,1-dimethyl-pyrrolidin-1-ium-2-carbonyl]piperazine-1-carbonyl]phenyl]-1-methyl-imidazole-2-carboxamide; iodide] showed an IC90 of 39 nM.
`Cn1c(-c2ccc(OC(F)F)c(F)c2Cl)cnc1C(=O)Nc1ccc(C(=O)N2CCN(C(=O)[C@@H]3C[C@@H](O)C[N+]3(C)C)CC2)c(Cl)c1` [Example B53] showed an IC90 of 91 nM.
`COc1ccc(-c2cnc(C(=O)Nc3ccc(C(=O)N[C@H]4[C@@H]5CN(C(=O)[C@@H]6C[C@@H](O)C[N+]6(C)C)C[C@@H]54)c(Cl)c3)n2C)c(F)c1F` [Example B54, N-[3-chloro-4-[(exo)-3-[(2 S,4R)-4-hydroxy-1,1-dimethyl-pyrrolidin-1-ium-2-carbonyl]-3-azabicyclo[3.1.01 hexan-6-yl]carbamoyl]phenyl]-5-(2,3-difluoro-4-methoxy-phenyl)-1-methyl-imidazole-2-carboxamide formate] showed an IC90 of 350 nM.
For `COc1ccc(-c2cnc(C(=O)Nc3ccc(C(=O)N[C@H]4[C@@H]5CN(C(=O)N[C@@H]6C[N+](C)(C)C[C@H]6O)C[C@@H]54)c(Cl)c3)n2C)c(F)c1F` [Example B55, (exo)-6-[[2-chloro-4-[[5-(2,3-difluoro-4-methoxy-phenyl)-1-methyl-imidazole-2-carbonyl]amino]benzoyl]amino]-N-[(trans)-4-hydroxy-1,1-dimethyl-pyrrolidin-1-ium-3-yl]-3-azabicyclo[3.1.0]hexane-3-carboxamide formate], the IC90 was 150 nM.
In the case of `Cn1c(-c2ccc(OCF)c(F)c2F)cnc1C(=O)Nc1ccc(C(=O)N2CCN(C(=O)C[N+](C)(C)C)CC2)c(Cl)c1` [Example B56, [2-[4-[2-chloro-4-[[5-[2,3-difluoro-4-(fluoromethoxy)phenyl]-1-methyl-imidazole-2-carbonyl]amino]benzoyl]piperazin-1-yl]-2-oxo-ethyl]-trimethyl-ammonium; formate], the IC90 is reported as 61 nM.
`Cn1c(-c2ccc(OC(F)F)c(F)c2Cl)cnc1C(=O)Nc1ccc(C(=O)N2CCN(C(=O)C3CC[N+](C)(CC(N)=O)CC3)CC2)c(Cl)c1` (stereo not drawn) [Example C1, N-[4-[4-[1-(2-Amino-2-oxo-ethyl)-1-methyl-piperidin-1-ium-4-carbonyl]piperazine-1-carbonyl]-3-chloro-phenyl]-5-[2-chloro-4-(difluoromethoxy)-3-fluoro-phenyl]-1-methyl-imidazole-2-carboxamide;formate] gave an IC90 of 23 nM.
Molecule `Cn1c(-c2ccc(OC(F)F)c(F)c2F)cnc1C(=O)Nc1ccc(C(=O)N2CCN(C(=O)C3CC[N+](C)(CC(N)=O)CC3)CC2)c(Cl)c1` (stereo not drawn) [Example C2, N-[4-[4-[1-(2-amino-2-oxo-ethyl)-1-methyl-piperidin-1-ium-4-carbonyl]-piperazine-1-carbonyl]-3-chloro-phenyl]-5-[4-(difluoro-methoxy)-2,3-difluoro-phen-yl]-1-methyl-imidazole-2-carboxamide; formate] has an IC90 of 34 nM.
In the case of `COc1ccc(-c2cnc(C(=O)Nc3ccc(C(=O)N4CCN(C(=O)C5CC[N+](C)(CC(N)=O)CC5)CC4)c(Cl)c3)n2C)c(Cl)c1F` (stereo not drawn) [Example C3, N-[4-[4-[1-(2-amino-2-oxo-ethyl)-1-methyl-piperidin-1-ium-4-carbonyl]-piperazine-1-carbonyl]-3-chloro-phenyl]-5-(2-chloro-3-fluoro-4-meth-oxy-phenyl)-1-methyl-imid-azole-2-carbox-amide; formate], the IC90 is reported as 57 nM.
Work on `COc1ccc(-c2cnc(C(=O)Nc3ccc(C(=O)N4CCN(C(=O)C5CC[N+](C)(CC(N)=O)CC5)CC4)c(Cl)c3)n2C)c(F)c1F` (stereo not drawn) [Example C5, N-[4-[4-[1-(2-amino-2-oxo-ethyl)-1-methyl-piperidin-1-ium-4-carbonyl]-piperazine-1-carbonyl]-3-chloro-phenyl]-5-(2,3-difluoro-4-methoxy-phenyl)-1-meth-yl-imidazole-2-carboxamide; formate] yielded an IC90 of 73 nM.
`COc1ccc(-c2cnc(C(=O)Nc3ccc(C(=O)N4CCN(C(=O)C5CCN(C(=O)C[N+](C)(C)C)CC5)CC4)c(Cl)c3)n2C)c(F)c1F` [Example C6, [2-[4-[4-[2-chloro-4-[5-(2,3-difluoro-4-methoxy-phen-yl)-1-methyl-imidazole-2-carbonyl]amino]-benzoyl]piper-azine-1-carbon-yl]-1-piperidyl]-2-oxo-ethyl]-trimethyl-ammonium; formate] was tested, and the IC90 was 160 nM.
`COc1ccc(-c2cnc(C(=O)Nc3ccc(C(=O)N4CCN(C(=O)C5CCN(C(=O)C[N+](C)(C)CC(N)=O)CC5)CC4)c(Cl)c3)n2C)c(F)c1F` [Example C7, (2-amino-2-oxo-ethyl)-[2-[4-[4-[2-chloro-4-[[5-(2,3-difluoro-4-methoxy-phenyl)-1-meth-yl-imidazole-2-carbonyl]amino]-benzoyl]piper-azine-1-carbon-yl]-1-piperidyl]-2-oxo-ethyl]-dimethyl-ammo-nium; formate] gave an IC90 of 250 nM.
For `COc1ccc(-c2cnc(C(=O)Nc3ccc(C(=O)N4CCN(C(=O)C5CC[N+](C)(CC(=O)O)CC5)CC4)c(Cl)c3)n2C)c(F)c1F` (stereo not drawn) [Example C8, 2-[4-[4-[2-chloro-4-[[5-(2,3-difluoro-4-methoxy-phen-yl)-1-methyl-imidazole-2-carbonyl]amino]-benzoyl]piper-azine-1-carbon-yl]-1-methyl-piperidin-1-ium-1-yl]acetic acid; formate], the IC90 was 640 nM.

Same assay, conditions: Acinetobacter baumannii, ATCC17961, 16 h, read-out: ATCC 17961 IC90, Acinetobacter baumannii ATCC17961; Iso-Sensitest broth; growth by OD 600 nm over 16 h; 35±2° C.
Work on `COc1ccc(-c2cnc(C(=O)Nc3ccc(C(=O)N4CCN(C(=O)[C@@H]5[C@H](O)CC[N+]5(C)C)CC4)c(Cl)c3)n2C)c(F)c1F` [Example B44, N-[3-chloro-4-[4-[(2S,3R)-3-hydroxy-1,1-dimethyl-pyrrolidin-1-ium-2-carbonyl]piperazine-1-carbonyl]phenyl]-5-(2,3-difluoro-4-methoxy-phenyl)-1-methyl-imidazole-2-carboxamide; formate] yielded an IC90 of 420 nM.
With `Cn1c(-c2ccc(OCF)c(F)c2F)cnc1C(=O)Nc1ccc(C(=O)N2CCN(C(=O)[C@@H]3C[C@@H](O)C[N+]3(C)C)CC2)c(Cl)c1` [Example B45, N-[3-chloro-4-[4-[(2S,4R)-4-hydroxy-1,1-dimethyl-pyrrolidin-1-ium-2-carbonyl]piperazine-1-carbonyl]phenyl]-5-[2,3-difluoro-4-(fluoromethoxy)phenyl]-1-methyl-imidazole-2-carboxamide; formate] the IC90 was 93 nM.
With `COc1ccc(-c2cnc(C(=O)Nc3ccc(C(=O)N4CCN(C(=O)[C@@H]5CC[C@H](O)C[N+]5(C)C)CC4)c(Cl)c3)n2C)c(F)c1F` [Example B46, N-[3-chloro-4-[4-[(2S,5S)-5-hydroxy-1,1-dimethyl-piperidin-1-ium-2-carbonyl]piperazine-1-carbonyl]phenyl]-5-(2,3-difluoro-4-methoxy-phenyl)-1-methyl-imidazole-2-carboxamide; formate] the IC90 was 120 nM.
Work on `COc1ccc(-c2cnc(C(=O)Nc3ccc(C(=O)N4CCN(C(=O)[C@@H]5C[C@@H](O)C[N+]5(C)C)CC4)c(Cl)c3)n2C)c(F)c1Cl` [Example B48, 5-(3-chloro-2-fluoro-4-methoxy-phenyl)-N-[3-chloro-4-[4-[(2S,4R)-4-hydroxy-1,1-dimethyl-pyrrolidin-1-ium-2-carbonyl]piperazine-1-carbonyl]phenyl]-1-methyl-imidazole-2-carboxamide formate] yielded an IC90 of 76 nM.
Work on `COc1ccc(-c2cnc(C(=O)Nc3ccc(C(=O)N4CCN(C(=O)[C@@H]5C=CC[N+]5(C)C)CC4)c(Cl)c3)n2C)c(F)c1F` [Example B49, N-[3-chloro-4-[4-[(2S)-1,1-dimethyl-2,5-dihydropyrrol-1-ium-2-carbonyl]piperazine-1-carbonyl]phenyl]-5-(2,3-difluoro-4-methoxy-phenyl)-1-methyl-imidazole-2-carboxamide formate] yielded an IC90 of 120 nM.
In the case of `COc1ccc(-c2cnc(C(=O)Nc3ccc(C(=O)N4CCN(C(=O)[C@@H]5[C@@H](O)[C@@H](O)C[N+]5(C)C)CC4)c(Cl)c3)n2C)c(F)c1F` [Example B50, N-[3-chloro-4-[4-[(2S,3R,4S)-3,4-dihydroxy-1,1-dimethyl-pyrrolidin-1-ium-2-carbonyl]piperazine-1-carbonyl]phenyl]-5-(2,3-difluoro-4-methoxy-phenyl)-1-methyl-imidazole-2-carboxamide formate], the IC90 is reported as 250 nM.
With `COc1ccc(-c2cnc(C(=O)Nc3ccc(C(=O)N4CCN(C(=O)[C@@H]5C[C@@H](O)C[N+]5(C)C)CC4)c(Cl)c3)n2C)c(F)c1C#N` [Example B51, N-[3-chloro-4-[4-[(2S,4R)-4-hydroxy-1,1-dimethyl-pyrrolidin-1-ium-2-carbonyl]piperazine-1-carbonyl]phenyl]-5-(3-cyano-2-fluoro-4-methoxy-phenyl)-1-methyl-imidazole-2-carboxamide; formate] the IC90 was 540 nM.
With `COc1ccc(-c2cnc(C(=O)Nc3ccc(C(=O)N4CCN(C(=O)[C@@H]5C[C@@H](O)C[N+]5(C)C)CC4)c(Cl)c3)n2C)c(F)c1C(F)(F)F` [Example B52, N-[3-chloro-4-[4-[(2S,4R)-4-hydroxy-1,1-dimethyl-pyrrolidin-1-ium-2-carbonyl]piperazine-1-carbonyl]phenyl]-5-[2-fluoro-4-methoxy-3-(trifluoromethyl)phenyl]-1-methyl-imidazole-2-carboxamide; formate] the IC90 was 520 nM.
`Cn1c(-c2ccc(OC(F)F)c(F)c2Cl)cnc1C(=O)Nc1ccc(C(=O)N2CCN(C(=O)C3CC[N+](CC(N)=O)(CC(N)=O)CC3)CC2)c(Cl)c1` [Example C9, N-[4-[4-[1,1-bis(2-amino-2-oxo-ethyl)piper-idin-1-ium-4-carbonyl]piper-azine-1-carbon-yl]-3-chloro-phenyl]-5-[2-chloro-4-(difluorometh-oxy)-3-fluoro-phenyl]-1-methyl-imid-azole-2-carbox-amide; formate] gave an IC90 of 120 nM.
